Assay results published in patent US20070015771A1, “Lonidamine analogs” (Threshold pharmaceuticals, Inc., priority 2004, published 2007).
Read-outs that look alike come from different tables or passages of the source.

Columns and labels:
PWR-1E cells [1] = experiment: Antiproliferation assay 3 days, PWR-1E cells (Example 49); assay type: cell-based; conditions: 3 day treatment; read-out: PWR1e cell line IC50
Protocol: (§1) To determine the effect of lonidamine analogs thereof on cell proliferation, the antiproliferative activity of these compounds was tested in a multi-well Alamar Blue based assay (at 3 days). Cell growth in the presence and absence of the test compound was compared, as measured by a fluoresence plate reader at excitation 550 nm and emission 590 nm (see Biosource International Inc., Tech Application Notes, Use of Alamar Blue in the measurement of Cell Viability and Toxity, Determining IC50). The following cell lines were tested: PWR-1E cells ((ATCC CRL-11611), 3500 cells/well/200 μl in Keratinocyte SFM medium (Gibco Products, Invitrogen Corporation, Carlsbad, Calif.)); DU-145 cells ((ATCC HTB-81), 4000 cells/well/200 μl in MEM Eagles medium (ATCC, Manassas, Va.)); PC3 cells ((ATCC CRL-1435), 4000 cells/200 μl in Modified HAM's F12 medium (ATCC, Manassas, Va.)); PNt2 cells ((Sigma-Aldrich, 95012613-1 VL), 4000 cells/well/200 μl in RPMI medium (Gibco Products, Invitrogen Corporation, Carlsbad, Calif.), BPH-1 ((DSMZ ACC-143), 4000 cells/well/200 μl in RPMI medium (Gibco Products, Invitrogen Corporation, Carlsbad, Calif), and NCI-H460 cells ((ATCC HTB-177), 4000 cells/well/200 μl in RPMI medium (Gibco Products, Invitrogen Corporation, Carlsbad, Calif.)). The cells were seeded in a 96 well plate in a medium specified above. After 24 hours, these plates were divided into 2 groups—Control group and 3 day treatment group. A test compound was added to each plate in the treatment groups at concentrations of […] as tabulated in Table 1 (in 2 μl 1 of 100% DMSO, final DMSO concentration 1% in all wells). For NCI-H460 cells, test compounds were added to each plate in the treatment groups at concentrations of 600, 300, 100, 30, 10, 3, and 1 μM (in 2 μl of 100% DMSO, final DMSO concentration 1% in all wells). The cells in the 3 day treatment group were incubated for 3 days, followed by staining with AlamarBlue. In the Control group, AlamarBlue was added to the plate at (i) day 0 and (ii) day 3 and measured to establish the control reading. […] For the NCI-H460 cells, the capacity of the cells to proliferate was measured 5 hours after addition of AlamarBlue using the same fluorescence plate reader as stated above.

left and right testis = experiment: Mouse study, 10 days oral, testis weight; assay type: in vivo; conditions: C57B1/6J mice, oral daily for 10 days, 0.2-20 mg/kg
Protocol: The control mice received an equal amount of the vehicle (carboxymethylcellulose). […] Relative weights of entire prostate and individual lobes were calculated by dividing the corresponding absolute weight by the total weight of the mouse. Relative weights of the entire prostate, the dorsal prostate, and the ventral prostate were calculated by dividing the absolute weight by the total weight of the mouse. Relative weights of the left and right testis were calculated by dividing the corresponding absolute weights by the total weights of the mouse.

testes = experiment: 5 day systemic administration in male SH rats, testis; assay type: in vivo, rat; conditions: male SH rats, oral daily for 5 days at 50 mg/ml, day 6
PWR-1E cells [2] = experiment: Antiproliferation assay, PWR-1E cells (Example 48); assay type: cell-based; conditions: read-out: IC50 PWR-1E cell
Protocol: (§2) To determine the effect of lonidamine and analogs thereof on cell proliferation, the antiproliferative activity of these compounds was tested in a multi-well Alamar Blue based assay (at 2 h and 3 days). Cell growth in the presence and absence of the test compound (compounds 1-22) was compared, as measured by a fluorescence plate reader at excitation 550 nm and emission 590 nm (see Biosource International Inc., Tech Application Notes, Use of Alamar Blue in the measurement of Cell Viability and Toxicity, Determining IC50). H460 cells (ATCC HTB-177 ([…]), 4,000 cells/well/200 μl) and LNCap cells (ATCC CRL-1740, 6,000 cells/well/200 μl) were seeded in a 96 well plate in RPMI medium (Invitrogen Corporation, Carlsbad, Calif.). After 24 hours, these plates were divided into 3 groups—Control group, 2 h treatment group and 3 day treatment group. In the 2 h treatment group, after 2 h the cells were rinsed to remove the test compound and incubated for 3 days, followed by staining with AlamarBlue. The cells in the 3 day treatment group were incubated for 3 days, followed by staining with AlamarBlue. In the Control group, AlamarBlue was added to the plate at (i) day 0 and (ii) day 3 and measured to establish the control reading.
The effect of lonidamine and analogs thereof on cell proliferation in PWR-1E cells (ATCC CRL-11611) was determined in an antiproliferative assay using PWR-1E cells (5000 cells/well) in Keratinocyte SFM medium (Gibco Products, Invitrogen Corporation, Carlsbad, Calif.) according to the procedure detailed in Example 47 above.

PC3 cells = experiment: Antiproliferation assay 3 days, PC3 cells; assay type: cell-based, human; conditions: 3 day treatment; read-out: PC-3 cell line IC50
Protocol: as §1

mouse prostate = experiment: Mouse study, 5 days oral, prostate weight and histomorphology; assay type: in vivo; conditions: C57B1/6J mice
Protocol: The effect of Compound 1 on the mouse prostate was determined as follows. Compound 1 was orally administered daily for 5 days to male, C57B1/6J mice, (n=5, 6-8 weeks old) 1 at 2, 5, and 20 mg/kg (as a 1% carboxymethylcellulose formulation). The control mice received an equal amount of the vehicle (carboxymethylcellulose). On day 6 the mice were sacrificed and the entire prostate and the individual lobes (e.g., the dorsal lobe and the ventral lobe) were weighed to measure absolute weights. Relative weights of prostate and individual lobes were calculated by dividing the absolute weight by the total weight of the mouse. Relative weights of the entire prostate, the dorsal prostate, and the ventral prostate were calculated by dividing the absolute weight by the total weight of the mouse. Both the absolute entire prostate and relative entire prostate weights reduced in the 5 and 20 mg/kg groups compared to the control group. The histomorphology of the prostate was also analyzed and compared to that of the control or untreated prostate as illustrated in FIGS. 1-3, showing […].

H460 cells = experiment: Antiproliferation assay (Alamar Blue), H460 cells; assay type: cell-based
Protocol: as §2

PNt2 cells = experiment: Antiproliferation assay 3 days, PNt2 cells; assay type: cell-based; conditions: 3 day treatment; read-out: PNT2c cell line IC50
Protocol: as §1

DU-145 cells = experiment: Antiproliferation assay 3 days, DU-145 cells; assay type: cell-based; conditions: 3 day treatment; read-out: Du-145 cell line IC50
Protocol: as §1

[3] = oral daily for 5 days, 5 and 20 mg/kg groups vs control

SMILES: O=C(NO)c1nn(Cc2ccc(Cl)cc2Cl)c2ccccc12 [Compound 1]
- IC50 (PWR-1E cells [1]): 5.3 µM
- absolute left testis weight (FIG. 13) (left and right testis): dose dependent reduction
- absolute right testis weight (FIG. 12) (left and right testis): dose dependent reduction
- relative left testis weight (FIG. 5) (left and right testis): dose dependent reduction
- relative right testis weight (FIG. 4) (left and right testis): dose dependent reduction
- Testis shrinkage (testes): −2.5%
- IC50 (PWR-1E cells [2]): 4 µM
- IC50 (PC3 cells): 15 µM
- histomorphology of the prostate (mouse prostate; oral daily for 5 days, 2, 5, 20 mg/kg): dose-dependent disorganization of the epithelial cells
- absolute entire prostate weight (mouse prostate; [3]): reduced
- relative entire prostate weight (mouse prostate; [3]): reduced
- GI50 (H460 cells; 3 day treatment, read-out: GI50 H460 cell 3 days): 15.8 µM
- GI50 (H460 cells; read-out: GI50 H460 cell 2 hr, 2 h treatment then 3 days incubation): 50 µM
- IC50 (PNt2 cells): 17 µM
- IC50 (DU-145 cells): 11 µM
